From patent US5939421A, “Quinazoline analogs and related compounds and methods for treating inflammatory conditions” (Signal Pharmaceuticals, Inc., priority 1997, dated 1999)
pIC50: −log10 of the molar value.

Legend:
IL-8 = assay: Inhibition of PMA/PHA-induced IL-8 production (ELISA, supernatants of NFκB reporter assay); type: cell-based; details: Homo sapiens
Procedure: (§1) Stable human Jurkat T-cells containing an NFκB binding site (from the MHC promoter) fused to a minimal SV-40 promoter driving luciferase expression were used in this experiment. Cells were split to 3×10^5 cells/mL every 2-3 days (cell concentration should not exceed 1×10^6 cells/mL to keep the cells proliferating in log phase). These cells were counted, resuspended in fresh medium containing 10% Serum-Plus at a density of 1×10^6 cells/mL and plated in 96 well round bottom plates (200 μL per well) 18 hours prior to starting the experiment.
(§2) Compounds of this invention, dissolved in dimethyl sulfoxide (3.3, 0.33 and 0.03 μg/mL), were then added to the 96 well plates containing the cells and the plates are incubated for 0.5 h at 37° C. Then 50 ng/mL of phorbol 12-myristate-13-acetate (PMA) and 1 μg/mL of phytohemagglutinin (PHA) was added to each well and the cells were incubated for an additional 5 h at 37° C. The plates were centrifuged at 2200 RPM for 3 minutes at room temperature and then the medium was removed. To each well was added 60 μL of cell lysis buffer and the plates were left at room temperature for 0.25 h. Then 40 μL of each cell extract was transferred to a black 96 well plate and 50 μL of luciferase substrate buffer was added. Luminescence was immediately measured using a Packard TopCount.
(§3) Cytokine levels in the supernatants (25-50 μL aliquots) were determined by ELISA.

IL-2 = assay: Inhibition of PMA/PHA-induced IL-2 production (ELISA, supernatants of AP-1 reporter assay); type: cell-based; details: Homo sapiens
Procedure: as §1, §2
(§4) For AP-1, the assay was run as described above for NFκB except stable Jurkat T-cells were used that contained a the -73 collagenase promoter driving luciferase expression. In addition, the concentration of PMA used was 5 ng/mL.
as §3

AP-1 = AP-1 assay: -73 collagenase promoter luciferase reporter in stable Jurkat T-cells, PMA/PHA stimulated; type: cell-based; details: Homo sapiens, PMA 5 ng/mL + PHA 1 μg/mL, 5 h
Procedure: as §1, §2, §4
The results of the above assays (expressed as IC50 's, μM) for representative compounds of this invention, as percent inhibition versus control, are presented in Table 3. β-actin was employed as a control […] indicating effects on transcription. The lack of β-actin activity evidences selectivity of the test compounds for the transcription factors AP-1 and NFκB.

NFκB = NFκB assay: luciferase reporter in stable Jurkat T-cells, PMA/PHA stimulated; type: cell-based; details: Homo sapiens, PMA 50 ng/mL + PHA 1 μg/mL, 5 h, read-out: NFkB IC50
Procedure: as §1, §2

mice [1] = details: Morris et al., Transplantation Proceedings 1990; cited from earlier work
mice [2] = details: Morris et al., Transplantation Proceedings 1990; cited from earlier work; remark: listed apart in the source

| SMILES | pIC50 (IL-8) | pIC50 (IL-2) | pIC50 (AP-1) | pIC50 (NFκB) | activity in the popliteal lymph node (PLN) model (mice [1]) | activity in the delayed-type hypersensitivity (oxazolone) model (mice [2]) |
| --- | --- | --- | --- | --- | --- | --- |
| COc1cccc2nc(C(F)(F)F)nc(NN3C(=O)C=C(C)C3=O)c12 [Compound 4, 4-(N-AMINOCITRACONAMIDO)-5-METHOXY-2-TRIFLUOROMETHYLQUNINAZOLINE] | 7.30 | 6.92 | 8.00 | 8.00 | – | – |
| COc1cc2c(NN3C(=O)C=C(C)C3=O)nc(-c3cccs3)nc2c(OC)c1OC [Compound 18, 4-(N-AMINOCITRACONAMIDO)-6,7,8-TRIMETHOXY-2-(2'-THIENYL)QUNINAZOLINE] | – | – | 7.70 | 8.00 | – | – |
| CC1=CC(=O)N(Nc2nc(-c3cccs3)nc3cccc(C)c23)C1=O [Compound 22, 4-(N-AMINOCITRACONAMIDO)-5-METHYL-2-(2'-THIENYL)QUNINAZOLINE] | – | – | 7.52 | 8.00 | – | – |
| CC1=CC(=O)N(Nc2nc(-c3ccccc3)nc3ccccc23)C1=O [Compound 1, 4-(N-AMINOCITRACONAMIDO)-2-PHENYLQUINAZOLINE] | 8.70 | 8.00 | 6.70 | 7.00 | – | – |
| CC1=CC(=O)N(Nc2nc(-c3cccs3)nc3ccccc23)C1=O [Compound 11, 4-(N-AMINOCITRACONAMIDO)-2-(2'-THIENYL)QUNINAZOLINE] | – | – | 7.15 | 7.40 | – | – |
| COc1ccc2c(NN3C(=O)C=C(C)C3=O)nc(-c3cccs3)nc2c1 [Compound 15, 4-(N-AMINOCITRACONAMIDO)-7-METHOXY-2-(2'-THIENYL)QUINAZOLINE] | – | – | 7.70 | 8.00 | – | – |
| COc1cccc2nc(-c3cccs3)nc(NN3C(=O)C=C(C)C3=O)c12 [Compound 13, 4-(N-AMINOCITRACONAMIDO)-5-METHOXY-2-(2'-THIENYL)QUINAZOLINE] | – | – | 8.10 | 8.10 | – | – |
| CC1=CC(=O)N(Nc2nc(-c3cccs3)nc3cccc(Cl)c23)C1=O [Compound 21, 4-(N-AMINOCITRACONAMIDO)-5-CHLORO-2-(2'-THIENYL)QUINAZOLINE] | – | – | 7.52 | 7.70 | – | – |
| O=P1(N(CCCl)CCCl)NCCCO1 (stereo not shown) [cyclophosphamide] | – | – | – | – | active | active |
| COc1cc2nc(-c3cccs3)nc(NN3C(=O)C=C(C)C3=O)c2cc1OC [Compound 17, 4-(N-AMINOCITRACONAMIDO)-6,7-DIMETHOXY-2-(2'-THIENYL)QUINAZOLINE] | – | – | 7.15 | 7.40 | – | – |
| CC1=CC(=O)N(N(C)c2nc(-c3cccs3)nc3ccccc23)C1=O [Compound 12, 4-(N-METHYL-N-AMINOCITRACONAMIDO)-2-(2'-THIENYL)QUNINAZOLINE] | – | – | 5.77 | 5.66 | – | – |
| CC1=CC(=O)N(Nc2nc(-c3cccs3)nc3cnccc23)C1=O [Compound 2, 4-(N-AMINOCITRACONAMIDO)-2-(2'-THIENYL)PYRIDOPYRIMIDINE] | 7.00 | 6.15 | 7.00 | 7.00 | – | – |
| CC1=CC(=O)N(Nc2nc(C(F)(F)F)nc3cccc(C)c23)C1=O [Compound 5, 4-(N-AMINOCITRACONAMIDO)-5-METHYL-2-TRIFLUOROMETHYLQUINAZOLINE] | 8.70 | 7.70 | 6.30 | 6.70 | – | – |
| CC1=CC(=O)N(Nc2nc(C(F)(F)F)nc3cc(Cl)ccc23)C1=O [Compound 6, 4-(N-AMINOCITRACONAMIDO)-7-CHLORO-2-TRIFLUOROMETHYLQUINAZOLINE] | 7.30 | 6.30 | 6.52 | 7.00 | – | – |
| COc1cccc2nc(-c3cccs3)nc(N(C)N3C(=O)C=C(C)C3=O)c12 [Compound 19, 4-(N-METHYL-N-AMINOCITRACONAMIDO)-5-METHOXY-2-(2'-THIENYL)QUNINAZOLINE] | – | – | 7.15 | 7.00 | – | – |
| CC1=CC(=O)N(Nc2nc(-c3cccs3)nc3cc(N(C)C)ccc23)C1=O [Compound 23, 4-(N-AMINOCITRACONAMIDO)-7-DIMETHYLAMINO-2-(2'-THIENYL)QUINAZOLINE] | – | – | 7.40 | 7.40 | – | – |
| CC1=CC(=O)N(Nc2nc(C(F)(F)F)nc3cc(N4CCCCC4)ccc23)C1=O [Compound 7, 4-(N-AMINOCITRACONAMIDO)-7-(N-PIPERIDYL)-2-TRIFLUOROMETHYLQUNINAZOLINE] | 8.30 | 7.15 | – | 7.00 | – | – |
| CSc1ccc2nc(C(F)(F)F)nc(NN3C(=O)C=C(C)C3=O)c2c1 [Compound 8, 4-(N-AMINOCITRACONAMIDO)-6-METHYLTHIO-2-TRIFLUOROMETHYLQUNINAZOLINE] | 7.30 | 7.40 | 7.05 | 7.22 | – | – |
| CC1=CC(=O)N(Nc2nc(C(F)(F)F)nc3ccc(S(C)(=O)=O)cc23)C1=O [Compound 10, 4-(N-AMINOCITRACONAMIDO)-6-METHYLSULFONYL-2-TRIFLUOROMETHYLQUNINAZOLINE] | – | – | 5.00 | 5.10 | – | – |
| COc1ccc2nc(-c3cccs3)nc(NN3C(=O)C=C(C)C3=O)c2c1 [Compound 14, 4-(N-AMINOCITRACONAMIDO)-6-METHOXY-2-(2'-THIENYL)QUNINAZOLINE] | – | – | 8.52 | 8.70 | – | – |
| CC1=CC(=O)N(Nc2nc(C(F)(F)F)nc3ccccc23)C1=O [Compound 3, 4-(N-AMINOCITRACONAMIDO)-2-TRIFLUOROMETHYLQUINAZOLINE] | 7.52 | 7.30 | 7.00 | 8.00 | – | – |
| COc1cccc2c(NN3C(=O)C=C(C)C3=O)nc(-c3cccs3)nc12 [Compound 16, 4-(N-AMINOCITRACONAMIDO)-8-METHOXY-2-(2'-THIENYL)QUNINAZOLINE] | – | – | 7.70 | 7.70 | – | – |
| CC1=CC(=O)N(Nc2nc(-c3cccs3)nc3cccc(F)c23)C1=O [Compound 20, 4-(N-AMINOCITRACONAMIDO)-5-FLUORO-2-(2'-THIENYL)QUINAZOLINE] | – | – | 7.15 | 6.70 | – | – |
